In patent US20230257393A1, “MACROMOLECULE-SUPPORTED THIENOAZEPINE COMPOUNDS, AND USES THEREOF” (BOLT BIOTHERAPEUTICS, INC., priority 2020, published 2023):
Where two headings read alike, the source gives them in different places.

How the values were obtained:
[1] = biological target: T1, human TLR7 (Homo sapiens, UniProt Q9NYK1); assay: HEK Reporter Assay, HEK293 NFKB reporter cells expressing human TLR7; assay type: cell-based; details: read-out: HEK293 hTLR7 EC50
T1 construct: host or cells: HEK293 reporter cells
T1 sequence (Q9NYK1 27-1049): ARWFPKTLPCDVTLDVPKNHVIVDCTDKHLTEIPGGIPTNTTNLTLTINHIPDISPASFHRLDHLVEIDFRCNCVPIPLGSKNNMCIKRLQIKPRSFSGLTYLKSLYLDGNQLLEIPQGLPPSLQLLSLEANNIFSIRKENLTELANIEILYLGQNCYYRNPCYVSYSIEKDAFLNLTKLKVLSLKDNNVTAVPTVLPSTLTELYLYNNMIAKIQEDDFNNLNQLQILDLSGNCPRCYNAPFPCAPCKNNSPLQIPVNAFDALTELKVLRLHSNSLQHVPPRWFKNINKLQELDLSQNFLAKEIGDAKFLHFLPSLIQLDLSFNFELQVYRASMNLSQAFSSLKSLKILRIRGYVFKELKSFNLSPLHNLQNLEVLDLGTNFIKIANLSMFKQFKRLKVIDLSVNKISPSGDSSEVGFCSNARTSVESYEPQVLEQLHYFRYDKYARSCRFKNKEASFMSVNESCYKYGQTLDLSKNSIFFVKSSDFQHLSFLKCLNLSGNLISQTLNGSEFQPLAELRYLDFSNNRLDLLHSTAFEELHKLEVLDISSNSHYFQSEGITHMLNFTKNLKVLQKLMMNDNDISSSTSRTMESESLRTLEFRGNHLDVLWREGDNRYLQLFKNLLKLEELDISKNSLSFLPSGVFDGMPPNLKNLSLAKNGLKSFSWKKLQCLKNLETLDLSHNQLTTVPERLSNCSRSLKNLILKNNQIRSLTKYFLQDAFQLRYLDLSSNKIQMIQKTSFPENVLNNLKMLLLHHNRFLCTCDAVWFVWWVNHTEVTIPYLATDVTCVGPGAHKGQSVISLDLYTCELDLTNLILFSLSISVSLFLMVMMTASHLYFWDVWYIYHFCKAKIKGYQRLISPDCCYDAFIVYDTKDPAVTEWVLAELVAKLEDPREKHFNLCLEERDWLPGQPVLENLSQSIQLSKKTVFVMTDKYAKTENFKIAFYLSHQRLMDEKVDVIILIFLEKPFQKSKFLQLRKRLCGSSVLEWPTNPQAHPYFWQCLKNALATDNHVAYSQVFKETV
Experimental: (§1) Each compound was synthesized, purified, and characterized by mass spectrometry and shown to have the mass indicated. Additional experimental procedures are found in the Examples. Activity against HEK293 NFKB reporter cells expressing human TLR7 or human TLR8 was measured according to Example 202.
(§2) HEK293 reporter cells expressing human TLR7 or human TLR8 were purchased from Invivogen and vendor protocols were followed for cellular propagation and experimentation. Briefly, cells were grown to 80-85% confluence at 5% CO2 in DMEM supplemented with 10% FBS, Zeocin, and Blasticidin. Cells were then seeded in 96-well flat plates at 4×10^4 cells/well with substrate containing HEK detection medium and immunostimulatory molecules. Activity was measured using a plate reader at 620-655 nm wavelength.

[2] = biological target: T2, human TLR8 (Homo sapiens, UniProt Q9NR97); assay: HEK Reporter Assay, HEK293 NFKB reporter cells expressing human TLR8; assay type: cell-based; details: read-out: HEK293 hTLR8 EC50
T2 construct: host or cells: HEK293 reporter cells
T2 sequence (Q9NR97 27-1041): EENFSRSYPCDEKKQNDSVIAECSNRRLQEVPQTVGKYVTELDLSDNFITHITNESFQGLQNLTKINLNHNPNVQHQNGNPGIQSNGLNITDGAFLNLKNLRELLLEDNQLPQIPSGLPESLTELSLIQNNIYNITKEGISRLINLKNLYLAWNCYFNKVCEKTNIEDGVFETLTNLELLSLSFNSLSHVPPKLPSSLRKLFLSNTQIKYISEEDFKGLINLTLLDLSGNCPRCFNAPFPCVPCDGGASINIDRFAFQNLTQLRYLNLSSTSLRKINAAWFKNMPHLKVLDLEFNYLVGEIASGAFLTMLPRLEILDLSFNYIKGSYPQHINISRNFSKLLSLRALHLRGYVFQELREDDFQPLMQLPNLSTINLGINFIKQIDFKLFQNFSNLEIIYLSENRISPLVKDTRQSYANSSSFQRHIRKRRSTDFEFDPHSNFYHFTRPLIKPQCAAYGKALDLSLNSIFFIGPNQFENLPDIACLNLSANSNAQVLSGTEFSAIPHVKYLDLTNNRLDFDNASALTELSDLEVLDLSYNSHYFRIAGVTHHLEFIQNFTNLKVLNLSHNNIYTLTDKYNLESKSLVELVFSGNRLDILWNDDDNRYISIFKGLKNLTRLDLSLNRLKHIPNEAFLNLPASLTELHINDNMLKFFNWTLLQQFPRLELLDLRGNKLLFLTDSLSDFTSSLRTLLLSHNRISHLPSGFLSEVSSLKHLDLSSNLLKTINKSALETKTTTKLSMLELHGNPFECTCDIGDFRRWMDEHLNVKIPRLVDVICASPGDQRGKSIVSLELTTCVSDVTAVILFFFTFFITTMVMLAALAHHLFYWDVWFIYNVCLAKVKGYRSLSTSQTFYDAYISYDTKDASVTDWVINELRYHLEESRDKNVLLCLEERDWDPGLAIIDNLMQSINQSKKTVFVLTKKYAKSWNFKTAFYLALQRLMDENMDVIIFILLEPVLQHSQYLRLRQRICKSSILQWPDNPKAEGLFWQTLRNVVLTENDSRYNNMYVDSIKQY
Experimental: as §1, §2

| Structure (SMILES) | EC50 ([1]; Table 1a) [µM] | EC50 ([2]; Table 1a) [µM] | other results |
| --- | --- | --- | --- |
| CCCN(CCC)C(=O)C1=Cc2sc(C(=O)Nc3ccc(N4CCC(C(=O)NCCNC(=O)OC(C)(C)C)CC4)nc3)cc2N=C(N)C1 [TAZ-3, tert-butyl (2-(1-(5-(5-amino-7-(dipropylcarbamoyl)-6H-thieno[3,2-b]azepine-2-carboxamido)pyridin-2-yl)piperidine-4-carboxamido)ethyl)carbamate] | > 9 | > 9 |  |
| CCCN(CCC)C(=O)C1=Cc2sc(-c3cccc(S(=O)(=O)N4CC(CO)C4)c3)cc2N=C(N)C1 [TAZ-4, 5-amino-2-[3-[3-(hydroxymethyl)azetidin-1-yl]sulfonylphenyl]-N,N-dipropyl-6H-thieno[3,2-b]azepine-7-carboxamide] | > 9 | > 9 |  |
| CCCN(CCC)C(=O)C1=Cc2sc(C)cc2N=C(N)C1 [TAZ-7, 5-amino-2-methyl-N,N-dipropyl-6H-thieno[3,2-b]azepine-7-carboxamide] | > 9 | > 9 |  |
| CCCN(CCCNC(=O)OC(C)(C)C)C(=O)C1=Cc2sc(Br)cc2N=C(N)C1 [TAZ-9, tert-butyl N-[3-[(5-amino-2-bromo-6H-thieno[3,2-b]azepine-7-carbonyl)-propyl-amino]propyl]carbamate] | > 9 | > 9 |  |
| CCCN(CCCN)C(=O)C1=Cc2sccc2N=C(N)C1 [TAZ-11, 5-amino-N-(3-aminopropyl)-N-propyl-6H-thieno[3,2-b]azepine-7-carboxamide] | > 9 | > 9 |  |
| CCCN(CCC)C(=O)C1=Cc2sc(-c3cnn(S(=O)(=O)N4CC(CO)C4)c3)cc2N=C(N)C1 [TAZ-12, 5-amino-2-[1-[3-(hydroxymethyl)azetidin-1-yl]sulfonylpyrazol-4-yl]-N,N-dipropyl-6H-thieno[3,2-b]azepine-7-carboxamide] | > 9 | > 9 |  |
| CCCN(CCC)C(=O)C1=Cc2sc(CCCCCNC(=O)OC(C)(C)C)cc2N=C(N)C1 [TAZ-13, tert-butyl N-[5-[5-amino-7-(dipropylcarbamoyl)-6H-thieno[3,2-b]azepin-2-yl]pentyl]carbamate] | > 9 | > 9 |  |
| CCCN(CCC)C(=O)C1=Cc2sc(-c3ccccc3)cc2N=C(N)C1 [TAZ-18, 5-amino-2-phenyl-N,N-dipropyl-6H-thieno[3,2-b]azepine-7-carboxamide] | > 9 | > 9 |  |
| CCCN(CCC)C(=O)C1=Cc2sc(-c3cnn(COCC[Si](C)(C)C)c3)cc2N=C(N)C1 [TAZ-19, 5-amino-N,N-dipropyl-2-(1-((2-(trimethylsilyl)ethoxy)methyl)-1H-pyrazol-4-yl)-6H-thieno[3,2-b]azepine-7-carboxamide] | > 9 | > 9 |  |
| CCCN(CCC)C(=O)C1=Cc2sc(C(=O)OC)cc2N=C(N)C1 [TAZ-20, methyl 5-amino-7-(dipropylcarbamoyl)-6H-thieno[3,2-b]azepine-2-carboxylate] | > 9 | > 9 |  |
| CCCN(CCC)C(=O)C1=Cc2sc(-c3cn[nH]c3)cc2N=C(N)C1 [TAZ-21, 5-amino-N,N-dipropyl-2-(1H-pyrazol-4-yl)-6H-thieno[3,2-b]azepine-7-carboxamide] | > 9 | > 9 |  |
| CCCN(CCC)C(=O)C1=Cc2sc(C(=O)O)cc2N=C(N)C1 [TAZ-22, 5-amino-7-(dipropylcarbamoyl)-6H-thieno[3,2-b]azepine-2-carboxylic acid] | > 9 | > 9 |  |
| CCCN(CCC)C(=O)C1=Cc2sc(C(=O)Nc3ccccc3)cc2N=C(N)C1 [TAZ-23, 5-amino-N2-phenyl-N7,N7-dipropyl-6H-thieno [3,2-b]azepine-2,7-dicarboxamide] | > 9 | > 9 |  |
| CCCN(CCC)C(=O)C1=Cc2sc(C(=O)NCC)cc2N=C(N)C1 [TAZ-24, 5-amino-N2-ethyl-N7,N7-dipropyl-6H-thieno[3,2-b]azepine-2,7-dicarboxamide] | > 9 | > 9 |  |
| CCCN(CCCc1ccc(CN2CCNCC2)cc1)C(=O)C1=Cc2sccc2N=C(N)C1 [TAZ-37] |  |  | EC50 ([1]; Table 1b): > 9 µM; EC50 ([2]; Table 1b): 2.94 µM |
| CCCN(OCC)C(=O)C1=Cc2sc(COCCCN)cc2N=C(N)C1 [TAZ-73] |  |  | EC50 ([1]; Table 1b): > 9 µM; EC50 ([2]; Table 1b): 2.98 µM |
| CCCN(CCC)C(=O)C1=Cc2sc(COCCNC(=O)OC(C)(C)C)cc2N=C(N)C1 [TAZ-80] |  |  | EC50 ([1]; Table 1b): 4 µM; EC50 ([2]; Table 1b): 3.79 µM |
| CN(C)Cc1ccc(CN(CCC(F)(F)F)C(=O)C2=Cc3sc(CCCCCN)cc3N=C(N)C2)cc1 [TAZ-117] |  |  | EC50 ([1]; Table 1c): ≥ 9 µM; EC50 ([2]; Table 1c): ≥ 9 µM |
| CCCN(CCC)C(=O)C1=Cc2sc(CC(=O)NCCN)cc2N=C(N)C1 [TAZ-120] |  |  | EC50 ([1]; Table 1c): ≥ 9 µM; EC50 ([2]; Table 1c): ≥ 9 µM |
| CCCN(Cc1cnc(CN(C)C)c(C(F)(F)F)c1)C(=O)C1=Cc2sc(CCCCCNC(=O)OC(C)(C)C)cc2N=C(N)C1 [TAZ-128] |  |  | EC50 ([1]; Table 1c): ≥ 9 µM; EC50 ([2]; Table 1c): ≥ 9 µM |
| CCCN(Cc1ccc(CN(C)C)c(C(F)(F)F)n1)C(=O)C1=Cc2sc(CCCCCNC(=O)OC(C)(C)C)cc2N=C(N)C1 [TAZ-146] |  |  | EC50 ([1]; Table 1c): ≥ 9 µM; EC50 ([2]; Table 1c): ≥ 9 µM |
| CCCN(CCCNC(=O)OC1CCC1)C(=O)C1=Cc2sc(C#CC3CNC3)cc2N=C(N)C1 [TAZ-192] |  |  | EC50 ([1]; Table 1c): 0.824 µM; EC50 ([2]; Table 1c): 3.48 µM |
| CCCN(OCC)C(=O)C1=Cc2sc(C#CC3CNC3)cc2N=C(N)C1 [TAZ-193] |  |  | EC50 ([1]; Table 1c): 3.36 µM; EC50 ([2]; Table 1c): 1.52 µM |

Now from value to compound, other results behind:

| EC50 ([1]; Table 1a) [µM] | EC50 ([2]; Table 1a) [µM] | Structure (SMILES) | other results |
| --- | --- | --- | --- |
| > 9 | > 9 | CCCN(CCC)C(=O)C1=Cc2sc(Cc3ccccc3)cc2N=C(N)C1 [TAZ-26, 5-amino-2-benzyl-N,N-dipropyl-6H-thieno[3,2-b] azepine-7-carboxamide] |  |
| > 9 | > 9 | CCCN(CCC)C(=O)C1=Cc2sc(C(=O)Nc3cncnc3)cc2N=C(N)C1 [TAZ-27, 5-amino-N7,N7-dipropyl-N2-pyrimidin-5-yl-6H-thieno[3,2-b]azepine-2,7-dicarboxamide] |  |
| > 9 | > 9 | CCCN(CCC)C(=O)C1=Cc2sc3ccccc3c2N=C(N)C1 [TAZ-28, 2-amino-N,N-dipropyl-3H-benzo[4,5]thieno[3,2-b]azepine-4-carboxamide] |  |
| > 9 | > 9 | CCCN(Cc1ccc(CNC(=O)OC(C)(C)C)cc1)C(=O)C1=Cc2sccc2N=C(N)C1 [TAZ-29, tert-butyl (4-((5-amino-N-propyl-6H-thieno[3,2-b]azepine-7-carboxamido)methyl)benzyl)carbamate] |  |
